{"source": "patent US7470831B1", "about": "“Genetic method” (Syngenta Limited, priority 1997, dated 2008)", "key": {"[1]": {"system": "palcA:cyInv transgenic tobacco plants", "protocol": "(§1) Phenotypic modification started 72 hours after ethanol induction and was strongest after 96 hours. The final phenotype was identical to the previously published results using the 35S CaMV promoter to drive the expression of cytosolic yeast invertase (Sonnewald et al Plant J. 1, 95 (1991)). Development of this phenotype followed maximal invertase activity and was most severe in transformant 28. Photosynthesis fluorescence measurements were used to monitor changes of quantum yield (Schreiber et al, in Ecophysiology of Photosynthesis Vol. 100, Schuize and Caldwell, Eds (Springer Verlag, Berlin, 1994), pp 49-70.) of all three transformant lines in vivo throughout the induction experiment."}, "[2]": {"system": "alcA promoter (p35S:alcR / palcA:CAT transgenic tobacco line)", "protocol": "(§2) A selected seedling was grown to maturity to produce a homozygous line. Seedlings of this plant were tested for CAT protein in comparison to seedlings of a similar plant transformed with a construct which expressed CAT from the constitutive high activity CaMV 35S promoter (Table 1).\n(§3) Individual seedlings from a homozygous transgenic tobacco line carrying the CAT gene expressed from the alcA promoter were compared with those from a similar line transformed with p35S:CAT. […] Induction was achieved by the addition of 0.1% ethanol to the growth medium for 120 h. The induction medium was replaced at 58 h to maintain ethanol concentrations. One leaf was taken prior to induction, and one leaf after induction. CAT ELISA (Boehringer Mannheim) was performed on crude cell extracts; total protein was determined as described previously (Bradford, Anal Biochem 72: 243 (1976). All values are ng CAT protein per mg total protein, and represent the mean of nine individual replicates±one standard deviation."}, "[3]": {"system": "CaMV 35S promoter (p35S:CAT transgenic tobacco line)", "protocol": "as §2, §3"}, "[4]": {"system": "palc:Inv transgenic tobacco plants", "conditions": "1% ethanol root drench", "protocol": "as §1\nFluorescence measurements were used to monitor changes in photosynthetic parameters during induction of invertase activity using the PAM-2000 instrument (Walz, Effeltrich, Germany). Quantum use efficiency (quantum yield) of photosystem II (PSII) was measured by applying a saturating light beam on light adapted leaves of wildtype and transformed plants (palc:Inv). Before each measurement, it was verified that the saturating pulse had reached a plateau to allow an accurate determination of Fm′. The intensities of the measuring and saturating light beam were adjusted to reach a FO′ value close to 0.4. Measurements were conducted on different leaves having reached 8% (A), 15% (B), or 45% (C) of maximal leaf area of five plants of each genotype at the indicated time points.\nQuantum yield of three succeeding light adapted leaves (leaf A-C) starting from the top of the plant was measured using a PAM-2000 instrument at the time points indicated. Values given are the means +−SE (n=5). For plants of line 28, quantum yield was reduced by 23% (p<0.05) and 27% (p<0.05) and for plants of line 10 only by 6% and 17% (p<0.05), respectively."}}, "note": "Where two headings read alike, the source gives them in different places."}
{"smiles": "CCO", "note": "[Ethanol, ethanol]", "values": [{"measurement": "invertase activity in transgenic plants at two ethanol concentrations", "setting": "[1]; 5% vs 1% ethanol (FIG. 3)", "result": "dose-dependent"}, {"measurement": "time after first addition of ethanol at which elevated invertase activity was measurable", "setting": "[1]; lines 10, 27 and 28, root drench 100 ml 1% ethanol (v/v)", "result": 6, "unit": "h"}, {"measurement": "time after initial root drenching at which invertase activity reached a plateau", "setting": "[1]; lines 10 and 27, root drench 100 ml 1% ethanol, repeated at 48 and 72 hours", "result": 96, "unit": "h"}, {"measurement": "start of phenotypic modification after ethanol induction", "setting": "[1]; palcA:cyInv lines, strongest after 96 hours", "result": 72, "unit": "h"}, {"measurement": "CAT activity of induced palc:CAT seedlings relative to ethanol-treated p35S:CAT seedlings", "setting": "[2]; ethanol-induced palc:CAT vs ethanol-treated p35S:CAT", "result": 55, "unit": "%"}, {"measurement": "CAT activity of induced palc:CAT seedlings relative to untreated p35S:CAT seedlings", "setting": "[2]; ethanol-induced palc:CAT vs untreated p35S:CAT", "result": 39, "unit": "%"}, {"measurement": "CAT protein level", "setting": "[2]; homozygous palcA:CAT seedlings, 0.1% ethanol in growth medium for 120 h, mean of nine replicates ± one SD", "result": "30.37 ± 3.91 ng CAT protein per mg total protein"}, {"measurement": "reduction in CAT protein levels relative to the untreated control", "setting": "[3]; ethanol-treated p35S:CAT seedlings", "result": 29, "unit": "%"}, {"measurement": "CAT protein level", "setting": "[3]; p35S:CAT seedlings, 0.1% ethanol in growth medium for 120 h, mean of nine replicates ± one SD", "result": "55.46 ± 10.85 ng CAT protein per mg total protein"}, {"measurement": "reduction of quantum yield", "setting": "[4]; line 10, leaf B (15% of maximal leaf area)", "result": 6, "unit": "%"}, {"measurement": "reduction of quantum yield", "setting": "[4]; line 10, leaf C (45% of maximal leaf area), p<0.05", "result": 17, "unit": "%"}, {"measurement": "reduction of quantum yield", "setting": "[4]; line 28, leaf B (15% of maximal leaf area), p<0.05", "result": 23, "unit": "%"}, {"measurement": "reduction of quantum yield", "setting": "[4]; line 28, leaf C (45% of maximal leaf area), p<0.05", "result": 27, "unit": "%"}]}
